The subject of series [1] is S. aureus MW2-WT. Kind of series: Time-to-kill assay (OD and CFU counts over 16 h), broth dilution. The class given is cell-based, Staphylococcus aureus. The method, then:
FIGS. 4A-F show. […] Optical Density and corresponding Colony forming units of (C and D) MW2-WT and (E and F) MW2ΔSTK1 cultures in the presence or absence 50 μM Inh2-B1, 1.51 μM (1 μg/ml) Ceftriaxone, 2.125 μM (1 μg/ml) Cefotaxime, and combination of Inh2-B1 plus Ceftriaxone, and Inh2-B1 plus Cefotaxime. The experiments were carried out as described in the Materials and Method section using Muller-Hinton broth and seeded with 4×10^6 CFUs of S. aureus MW2-Wild type or MW2ΔSTK1 strains per well. Each data points represent Mean±S.D. P values of significance (**=<0.01, ***=<0.001) were determined using the t-test with Welch's corrections. NS—Not significant.
(§1) Subsequently, the susceptibility of S. aureus MW2 strain to Ceftriaxone, Cefotaxime, Inh2, and Inh2-B1 was confirmed by the CLSI recommended serial dilution method using Muller Hinton broth. Minimum bactericidal activity (MBC) was measured using Muller-Hinton agar. Changes in the MBC of Ceftriaxone/Cefotaxime in the presence of serially diluted Inh2-B1 was determined in two steps. Initial screening was carried out using the Checkerboard method using Muller-Hinton agar (FIG. 15). […] Subsequent time to kill assays were carried out using 50 μM Inh2-B1 and Ceftriaxone. Cefotaxime (1 μg/ml) in a final volume of 250 μl using a sterile 96-well (U-bottom) microtiter plate over a period of 16 h at 37° C. under constant rotation (120 rpm). Optical density and corresponding CFU counts were measured at every two-hour interval up to 8 hours with a final overnight reading at the end of incubation period. CFU counts were measured using appropriate dilution of 10 μl of properly mixed samples at each time interval. All experiments were performed in three biological replicates and the statistical analysis of the results obtained at each time point was carried out by the non-parametric t-test with Welch's correction using GraphPad Prism 6 software.

Series [2] in a line: Stability in serum and body fluid. The class given is in vitro ADME.
The subject of series [3] is S. aureus MW2-WT, MW2ΔSTK1 and MW2ΔSTP1 colonies. Kind of series: Colony hemolysis pattern on TSA blood agar plates. The class given is cell-based, Staphylococcus aureus. The conditions noted are these: 50 μM Inh2-B1, MW2-WT, MW2ΔSTK1 or MW2ΔSTP1. From the text:
See the increased hemolysis around the colonies of the MW2ΔSTK1 mutant and absence of hemolysis around those of MW2ΔSTP1 mutant as depicted in the enlarged portion of certain representative colonies shown under each panel of the strain. A one centimeter bar is included to facilitate the determination of the relative size of colonies and corresponding hemolytic zones around them.

The subject of series [4] is S. aureus STK1 / STKK1. Kind of series: Solid-phase ATP affinity chromatography, elution of bound kinase by inhibitor, Western blot. The class given is binding. The method, then:
(§2) An overnight culture of S. aureus MW2 strain was centrifuged, and the resulting bacterial pellet was resuspended in lysostaphin digestion buffer (50 mM Tris/HCl buffer, pH 7.5, containing 5 μg/ml DNAse/RNAse and protease inhibitor cocktail) in 1/10 the volume of the original culture volume. The latter was then subjected to lysostaphin treatment (15 U/ml). The lysostaphin digest was sonicated (5 sec pulse at every 10 sec for 10 min at 50% of 130 W, […]), and the debris free whole cell lysate was obtained after centrifugation (10.000×g, 10 min, 4° C.). […] The column was then washed with ten column volumes of binding buffer. Subsequently, the bound proteins were eluted with the 10-column volume of buffer containing 50 μM Inh-2 and Inh2-B1. S. aureus crude lysate, the last fraction of the column washing step, and eluted fractions were resolved by SDS-PAGE and electroblotted onto a PVDF membrane. […] A similar experiment was performed using S. pyogenes whole cell lysates obtained from phage lysin-digested S. pyogenes M1T1 strain using the anti-SP-STK antibody as described previously using to determine the specificity of the inhibitor for S. aureus STK1.

For series [5], the system named is S. pyogenes SP-STK / SP-STKK. The series is described as above. The class given is binding. The conditions noted are these: purified recombinant protein. How it is done: as §2
Series [6] concerns S. aureus MW2. Kind of series: Broth dilution susceptibility / growth inhibition assay, Muller Hinton broth. The class given is cell-based, Staphylococcus aureus. Particulars: growth inhibition of S. aureus MW2. How it is done:
as §1

Consider `COC(=O)c1ccc2c(=O)[nH]c3c(C(=O)Nc4ccccc4)sc(=S)n3c2c1` [Inh2-B1, Methyl 5-oxo-3-(phenylcarbamoyl)-1-thioxo-4,5dihydro[1,3]thiazolo[3,4-a]quinazoline-8-carboxylate], for which the “log increase in growth from starting inoculum” value in series [1] (100 μM Inh2-B1, 16 h) is “more than 3 log”. In series [1] (100 μM Inh2-B1, 16 h, starting inoculum 4×10^6 CFU), the “CFU count of MW2-WT after growth” value is 1.8±1.0×10^9 CFU. Also, the “growth pattern of the MW2 wild-type in the presence of Inh2-B1” value in series [1] (FIGS. 4A and 4B, mimicked MW2ΔSTK1) is on record as “slightly retarded”. For the same molecule, in series [1] (mixture of 1.5 μM Ceftriaxone (1 μg/ml) and 50 μM Inh2-B1), the “growth of the MW2 wild-type, mixture” value is reported as “dramatically inhibited”. Besides, the “growth pattern of the wild-type, single agent” value in series [1] (only 50 μM Inh2-B1, only 1.5 μM Ceftriaxone (1 μg/ml) or only 3 μM Cefotaxime (1 μg/ml), 16 h) is recorded as “remained unaltered”. The “log reduction in comparison to the wild-type” value in series [1] (very high concentration (100 μM) of Inh2-B1) is reported as around 2 log. For the same molecule, the “stability in the serum and body fluid, such as peritoneal fluid” value in series [2] is recorded as “remain stable”. The “hemolysis pattern of colonies” value in series [3] is recorded as “did not show any changes in the hemolysis pattern”. The “elution of STK1 bound to ATP-column, whole cell lysate of S. aureus MW2” value in series [4] (eluted with 50 μM inhibitor, anti-STK1 immunoblot) is “presence of STK1”. The “elution of purified recombinant S. aureus STKK1 from ATP-column” value in series [4] (purified recombinant protein) is listed as “could elute only the S. aureus STKK1 protein”. In series [5], the “elution of purified recombinant S. pyogenes SP-STKK from ATP-column” value is recorded as “not S. pyogenes SP-STKK protein”. Further, the “concentration at which S. aureus MW2 still grows” value in series [6] is above 50 µM.
